Legend:
[1] = tested on: Mice (inbred strain ICR); test: Mammalian toxicity, oral gavage; format: in vivo; settings: Table 5; preliminary mouse screening
Experimental: Mice ([…] strain ICR, body weight between 20 and 26 g, 35 days old+/−4 days), were force fed with compounds solubilized in olive oil to a volume of 10 μL per gram of mouse via 1 mL disposable syringes attached to 22 gauge metal canulas directly in the stomach following the Institutional Animal Care and Use Committee (IACUC) standard procedure. One hour after gavage, mice were returned to food and water access ad libitum. Dose tested ranged from 60 up to 600 mg/kg of mice, following the method recommended by the US EPA to reduce the number of mice used to determine the LD50 doses. Mice were monitored after drug administration during the first hour, and then every 4 hours up to 24 hours. The surviving mice were humanely sacrificed. Any mice displaying a high state of pain/distress would also be considered as not surviving the treatment and were sacrificed before the end of the investigation. The […] was determined using the AOT425StatPgm software; the study was registered and approved by IACUC under number 201810416.

[2] = tested on: Anopheles gambiae Akron kdr (Akdr) strain, resistant to pyrethroids; test: Topical toxicity (24 hour mortality), An. gambiae Akdr; format: in vivo; settings: Table 5; topical, 24 h
Summary of the method: (§1)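 Females aged 3–6 days received 200 nL of compound in ethanol topically on the thorax, 10 per concentration per replicate, and were kept at 28° C with sugar water.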

[3] = tested on: Anopheles gambiae G3 sensitive strain; test: Topical toxicity (24 hour mortality), An. gambiae G3; format: in vivo; settings: Table 5; topical, 24 h
Summary of the method: as §1

[4] = tested on: Aedes aegypti strain Orlando (sensitive); test: Topical toxicity (24 hour mortality), Ae. aegypti Orlando; format: in vivo; settings: Table 5; topical, 24 h
Summary of the method: as §1

[5] = tested on: Aedes aegypti strain Puerto Rico (PR, resistant to permethrin); test: Topical toxicity (24 hour mortality), Ae. aegypti Puerto Rico; format: in vivo; settings: Table 5; topical, 24 h; strain not given, line below OR
Experimental: The Aedes aegypti strains Orlando (sensitive) as well as the Puerto Rico (PR, resistant to permethrin) were used. The Anopheles gambiae (G3 sensitive strain, as well as Akron kdr (Akdr) strain, resistant to pyrethroids were also assessed. The larvae were provided by the USDA, Gainesville Fl, and raised in a pan with tap water maintained at 28° C. Larvae were fed a ground liver and yeast mixture, and pupae were placed in emergence cages. Adults were held at 28° C. and provided with cotton balls soaked in 10% sugar water for rearing and for all bioassays.
Female adults from 3 to 6 days were used for the experiments. The drug was dissolved in ethanol and then applied with a micro-applicator on the thorax, between the legs: 200 nL of drug per female mosquito, with different concentrations of the drug; 10 mosquitos were treated together per concentration per replicate, and put together in a small container with free access to sweet water. Mortality, i.e. no visible movement, was assessed 24 hours after treatment. Every compound was assessed on at least 3 different cohorts of mosquitoes, and the LD50 values and slopes were determined with Probit analysis, corrected with Abbott's formula.

[6] = tested on: Aedes aegypti mosquitoes, insecticide-susceptible Orlando strain; format: in vivo; settings: Table 3B; Screened at μg/cm^2
Summary of the method: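 Sixteen female mosquitoes per glass tube facing netting-shielded filter paper treated with acetone solutions (30-0.01 μg/ml; screen at 100 μg/cm^2), no contact. Proportion on treated side scored up to 60 min, then flight-out checked 30 min; mortality after 24 hr constant exposure.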

[7] = Table 3B; Hammett substitution constant based on the ionization of benzoic acids; cited from earlier work
[8] = tested on: Aedes aegypti mosquitoes, insecticide-susceptible Orlando strain; settings: Table 3B; Screened at μg/cm^2

| Compound | Mouse LD50 [1] | An. gambiae AKDR LD50 [2] | An. gambiae G3 LD50 [3] | Ae. aegypti OR LD50 [4] | Ae. aegypti LD50 [5] | 1h % repellency [6] | σmeta [7] | 24h % mortality [8] |
| --- | --- | --- | --- | --- | --- | --- | --- | --- |
| O=C(Nc1cc(Cl)nc(Cl)c1)C(F)(C(F)(F)F)C(F)(F)F [compound 55] | ~50 ng/mg | 2.70 ng/mg | 5.80 ng/mg | 17.20 ng/mg | 7.10 ng/mg |  |  |  |
| O=C(Nc1cc(Cl)nc(C(F)(F)F)c1)C(F)(F)C(F)(F)OC(F)(F)F [compound 57] | >200 ng/mg | 3.60 ng/mg | 13.70 ng/mg | 14.90 ng/mg |  |  |  |  |
| O=C(Nc1cc(Cl)nc(Cl)c1)C(F)(F)C(F)(F)OC(F)(F)F [compound 54] | >2000 ng/mg | 11.00 ng/mg | 6.04 ng/mg | 17.80 ng/mg |  |  |  |  |
| O=C(CCl)Nc1cccc(C(F)(F)F)c1 [compound 4] |  |  |  |  |  | 50% | 0.52 | 3.13% |

From US20230337677A1, “ARYL AND PYRIDYL AMIDE PESTICIDES AND COMPOSITIONS THEREOF” (University of Florida Research Foundation, Incorporated, priority 2019, published 2023)
